From patent US10202349B2, “Asymmetric bis-acridines with antitumour activity and their uses” (POLITECHNIKA GDAŃSKA, priority 2015, dated 2019)

How the values were obtained:
Assay in all cases: Cytotoxic activity in vitro, SRB
Assay type in all cases: cell-based, human
DU-145 = test system: DU-145
Description: (§1) Cytotoxic activity tests in-vitro. A measure of the cytotoxic activity of bis-acridines are the EC50 (concentration of studied compounds at which 50% inhibition of proliferation of tumorous is observed) of the evaluated compounds that inhibit the growth of 50% of cells in relation to a control. The cytotoxic activity of the compounds was determined using SRB, recommended by the US National Cancer Institute (USA). As the spectrum of 13 human origin neoplasms in bis-acridine screening studies, we used the following: HT 29 [CRC], HCT 116 [CRC], H 460 [lung cancer], MDA MB 231 [breast cancer], MCF-7 [breast cancer], UM UC3 [bladder cancer], PC 3 [prostate cancer], DU 145 [ prostate cancer], Panc-1 [pancreatic cancer], Mia Pa Ca 2 [pancreatic cancer], BXPC 3 [pancreatic cancer], AsPC1 [pancreatic cancer], Capan-2 [pancreatic cancer]. […] The DU-145 results were substantially a basis for selecting compounds and neoplasms for screening. The next neoplasms most sensitive to the cytotoxic activity of bis-acridines was the CRC HCT-116, as well as breast cancer MBA-MB-231. […] The cytotoxic activity of the remaining bis-acridines is significant or high (EC50 in the range from 1 to 0.04 μM). […] Panc-1, MiaPaCa-2 and Capan-2 are more sensitive, whereas for AsPC-1 and BxPC-3 this activity is at least an order of magnitude smaller.

HT-29 = test system: HT-29
Description: as §1

H-460 = test system: H-460
Description: as §1

HCT-116 = test system: HCT-116
Description: as §1

PANC-1 = test system: PANC-1
Description: as §1

UM-UC-3 = test system: UM-UC-3
Description: as §1

MCF-7 = test system: MCF-7
Description: as §1

MiaPaCa-2 = test system: MiaPaCa-2
Description: as §1

Cc1ccc([N+](=O)[O-])c2c(NCCNCCNc3ccc(C)c4[nH]c5ccccc5c(=O)c34)c3ccccc3nc12 [C-2016, 9-{N-[(4-methyl-9(10H)-acridono-1-yl)aminoethyl]ethylamino}-4′-methyl-1′-nitroacridine]
EC50 (DU-145): 599 nM
EC50 (HT-29): 413 nM

Cc1ccc([N+](=O)[O-])c2c(NCCCN(C)CCCNc3ccc([N+](=O)[O-])c4[nH]c5ccc(O)cc5c(=O)c34)c3ccccc3nc12 [C-2019, 9-{N-[(7-hydroxy-4-nitro-9(10H)acridono-1-yl)aminopropyl]-N-methylaminopropylamino}-4′-methyl-1′-nitroacridine]
EC50 (DU-145): 73 nM
EC50 (H-460): 46 nM
EC50 (HT-29): 200 nM

Cc1ccc([N+](=O)[O-])c2c(NCCCN3CCN(CCCNc4ccc([N+](=O)[O-])c5[nH]c6ccc(O)cc6c(=O)c45)CC3)c3ccccc3nc12 [C-2020]
EC50 (DU-145): 61 nM
EC50 (H-460): 47 nM
EC50 (HT-29): 233 nM

Cc1ccc([N+](=O)[O-])c2c(NCCCNCCCNc3ccc([N+](=O)[O-])c4[nH]c5ccc(O)cc5c(=O)c34)c3ccccc3nc12 [C-2021, 9-{N-[(7-hydroxy-4-nitro-9(10H)acridono-1-yl)aminopropyl]-aminopropylamino}-4′-methyl-1′-nitroacridine]
EC50 (DU-145): 78 nM
EC50 (H-460): 73 nM
EC50 (HCT-116): 88 nM
EC50 (HT-29): 129 nM

Cc1ccc([N+](=O)[O-])c2c(NCCCN(C)CCCNc3ccc(C)c4[nH]c5ccccc5c(=O)c34)c3ccccc3nc12 [C-2023, 9-{N-[(4-methyl-9(10H)-acridono-1-yl)aminopropyl]-N-methylaminopropylamino}-4′-methyl-1′-nitroacridine]
EC50 (DU-145): 190 nM
EC50 (H-460): 71 nM
EC50 (HCT-116): 120 nM
EC50 (HT-29): 123 nM

Cc1ccc([N+](=O)[O-])c2c(NCCNCCNCCNc3ccc(C)c4[nH]c5ccccc5c(=O)c34)c3ccccc3nc12 [C-2024, 9-[N-(4-methyl-9(10H)acridono-1-yl)-aminoethylaminoethylamino-ethylamino]-4′-methyl-1′-nitroacridine]
EC50 (DU-145): 417 nM
EC50 (H-460): 370 nM
EC50 (HCT-116): 1270 nM
EC50 (HT-29): 1180 nM

Cc1ccc([N+](=O)[O-])c2c(NCCNCCNCCNc3ccc([N+](=O)[O-])c4[nH]c5ccccc5c(=O)c34)c3ccccc3nc12 [C-2032, 9-[N-(4-nitro-9(10H)acridono-1-yl)-aminoethylaminoethylamino-ethylamino]-4′-methyl-1′-nitroacridine]
EC50 (DU-145): 1690 nM
EC50 (HCT-116): 850 nM
EC50 (PANC-1): 1310 nM
EC50 (UM-UC-3): 730 nM

Cc1ccc(NCCCNCCCNc2c3ccccc3nc3cccc([N+](=O)[O-])c23)c2c(=O)c3ccccc3[nH]c12 [C-2038, 9-{N-[(4-methyl-9(10H)-acridono-1-yl)aminopropyl]propylamino}-1′-nitroacridine]
EC50 (DU-145): 184 nM
EC50 (MCF-7): 228 nM
EC50 (MiaPaCa-2): 280 nM
EC50 (PANC-1): 377 nM

Cc1ccc([N+](=O)[O-])c2c(NCCCNCCNCCCNc3ccc([N+](=O)[O-])c4[nH]c5ccccc5c(=O)c34)c3ccccc3nc12 [C-2039, 9-[N-(4-nitro-9(10H)acridono-1-yl)-aminopropylaminoethylamino-propylamino]-4′-methyl-1′-nitroacridine]
EC50 (DU-145): 88 nM
EC50 (MiaPaCa-2): 110 nM
EC50 (PANC-1): 142 nM

O=c1c2ccccc2[nH]c2c([N+](=O)[O-])ccc(NCCCNCCNCCCNc3c4ccccc4nc4cccc([N+](=O)[O-])c34)c12 [C-2040, 9-[N-(4-nitro-9(10H)acridono-1-yl)-aminopropylaminoethylamino-propylamino]-1′-nitroacridine]
EC50 (DU-145): 55 nM
EC50 (MiaPaCa-2): 46 nM
EC50 (PANC-1): 60 nM

O=c1c2cc(O)ccc2n2nnc3ccc(NCCCN4CCN(CCCNc5c6ccccc6nc6cccc([N+](=O)[O-])c56)CC4)c1c32 [C-2047, 1-[3-(8-hydroxy-6H-[1,2,3]triazolo[4,5,1-de]-acridin-6-on-5-yl)aminopropyl]-4-[3′-(1′-nitroacridin-1-yl)-aminopropyl]piperazine]
EC50 (DU-145): 17 nM
EC50 (H-460): 36 nM
EC50 (HCT-116): 17 nM
EC50 (HT-29): 29 nM

Cc1ccc([N+](=O)[O-])c2c(NCCCN(C)CCCNc3ccc4nnn5c6ccc(O)cc6c(=O)c3c45)c3ccccc3nc12 [C-2056, 9-{N-5-[(8-hydroxy-6H-[1,2,3]triazolo[4,5,1-de]-acridin-6-on-5-yl)aminopropyl]-N-methylaminopropylamino}-4′-methyl-1′-nitroacridine]
EC50 (DU-145): 38 nM

Cc1ccc([N+](=O)[O-])c2c(NCCCN3CCN(CCCNc4ccc5nnn6c7ccc(O)cc7c(=O)c4c56)CC3)c3ccccc3nc12 [C-2057, 1-[3-(8-hydroxy-6H-[1,2,3]triazolo[4,5,1-de]-acridin-6-on-5-yl)aminopropyl]-4-[3′-(4′-methyl-1′-nitroacridin-1-yl)-aminopropyl]piperazine]
EC50 (DU-145): 34 nM

Cc1ccc([N+](=O)[O-])c2c(NCCCN3CCN(CCCNc4ccc5nnn6c7ccccc7c(=O)c4c56)CC3)c3ccccc3nc12 [C-2058]
EC50 (DU-145): 42 nM

CN(CCCNc1c2ccccc2nc2cccc([N+](=O)[O-])c12)CCCNc1ccc2nnn3c4ccccc4c(=O)c1c23 [C-2060, 9-{N-5-[(6H-[1,2,3]triazolo[4,5,1-de]-acridin-6-on-5-yl)aminopropyl]-N-methylaminopropylamino}-1′-nitroacridine]
EC50 (DU-145): 150 nM
EC50 (H-460): 185 nM

O=c1c2ccccc2n2nnc3ccc(NCCCNCCCNc4c5ccccc5nc5cccc([N+](=O)[O-])c45)c1c32 [C-2063, 9-{N-5-[(6H-[1,2,3]triazolo[4,5,1-de]-acridin-6-on-5-yl)aminopropyl]-aminopropylamino}-1′-nitroacridine]
EC50 (DU-145): 4.6 nM
EC50 (H-460): 24 nM
